Experimental data reported in patent publication US8512752B2, “Hyaluronic acid derivatives obtained via “click chemistry” crosslinking” (Fidia Farmaceutici S.p.A., priority 2006, dated 2013).
Where a name gives a salt, the structure may show the parent alone.

Columns and labels:
Format in all cases: physicochemical
[1] = release of benzydamine hydrochloride from hydrogel of hyaluronic acid with 1,6-Heptadiyne; details: hydrogel of HA (product 1) with 1,6-heptadiyne, catalytic CuSO4.5H2O and ascorbic acid, Example 13; release in 100 ml distilled water
Description: (§1) 100 mg of product 1 are dissolved in 1.1 ml of distilled water; a solution of 140 μl of 1,6-Heptadiyne in 9.86 ml of DMSO are prepared separately, whereas 13.8 mg of benzydamine hydrochloride are dissolved in 0.5 ml of distilled water. The solution of hyaluronic acid is mixed with that of benzydamine and with 0.2 ml of that of 1,6-Heptadiyne; 0.1 ml of an aqueous solution obtained with 50 mg of CuSO4.5H2O in 1 ml of H2O and 0.1 mL of an aqueous solution of 20 mg of ascorbic acid are then added. The mixture is stirred vortically for a few minutes. The rapidly formed gel incorporates the benzydamine hydrochloride inside.
(§2) The quantity of benzydamine hydrochloride released from the hydrogel, in 100 ml of distilled water, is determined by means of U.V. spectrophotometric measurements at λ=308 nm by interpolation of the absorbance values on a calibration line constructed using solutions of the drug at known concentration.

[2] = release of benzydamine hydrochloride from hydrogel of crosslinked hyaluronic acid obtained with catalytic CuSO4.5H2O; details: hydrogel of HA (product 1 + product 2) crosslinked with catalytic CuSO4.5H2O and ascorbic acid, Example 11; release in 100 ml distilled water
Description: 50 mg of product 1 and 50 mg of product 2 are dissolved in 1.3 ml of distilled water and separately 13.8 mg of benzydamine hydrochloride are dissolved in 0.5 ml of distilled water. The solution of hyaluronic acid is mixed with that of benzydamine hydrochloride; 0.1 ml of an aqueous solution obtained with 50 mg of CuSO4.5H2O in 1 ml of H2O and 0.1 ml of an aqueous solution of 20 mg of ascorbic acid are then added.
The mixture is stirred vortically for a few minutes. The rapidly formed gel incorporates the benzydamine hydrochloride inside.
as §2
(§3) The release measurements of the drug are performed on the hydrogel described above.

[3] = release of benzydamine hydrochloride from hydrogel of crosslinked hyaluronic acid obtained with catalytic CuCl; details: hydrogel of HA (product 1 + product 2) crosslinked with catalytic CuCl, Example 11; release in 100 ml phosphate buffer solution pH=7.4
Description: 69 mg of benzydamine hydrochloride are dissolved in 2 ml of water and 50 mg of product 1 and 50 mg of product 2 synthesized as described above, are then added.
830 μL of a 1% w/V solution of CuCl are subsequently added to the solution and the gel is formed after a few minutes directly incorporating the drug.
as §2, with “ml of a phosphate buffer solution pH=7.4, is determined” for “ml of distilled water, is determined”, “drug at a known concentration.” for “drug at known concentration.”
as §3

[4] = release of doxorubicin hydrochloride from hydrogel of hyaluronic acid with 1,4-diethynylbenzene; details: hydrogel of HA (product 1) with 1,4-diethynylbenzene, catalytic CuSO4.5H2O and ascorbic acid, Example 13; release in 100 ml distilled water
Description: 100 mg of product 1 are dissolved in 1.1 ml of distilled water and 3 mg of 1,4-Diethynylbenzene are dissolved separately in 0.2 ml of DMSO, whereas 23.2 mg of doxorubicin hydrochloride are dissolved in 0.5 ml of distilled water. The three solutions are mixed, 0.1 ml of an aqueous solution obtained with 50 mg of CuSO4.5H2O in 1 ml of H2O and 0.1 ml of an aqueous solution of 20 mg of ascorbic acid are then added. The mixture is stirred vortically for a few minutes. The rapidly formed gel (see FIG. 26) incorporates the doxorubicin hydrochloride inside.
as §2, with “doxorubicin” for “benzydamine”, “λ=486” for “λ=308”
The release measurements of the drug are effected on the hydrogel described above.

[5] = release of doxorubicin hydrochloride from hydrogel of hyaluronic acid with 1,8-Nonadiyne; details: hydrogel of HA (product 1) with 1,8-Nonadiyne, catalytic CuSO4.5H2O and ascorbic acid, Example 13; release in 100 ml distilled water
Description: 100 mg of product 1 are dissolved in 1.1 ml of distilled water; a solution of 200 μl of 1,8-Nonadiyne in 11.23 ml of DMSO are prepared separately, whereas 23.2 mg of doxorubicin hydrochloride are dissolved in 0.5 ml of distilled water. The solution of hyaluronic acid is mixed with that of doxorubicin and with 0.2 ml of that of 1,8-Nonadiyne; 0.1 ml of an aqueous solution obtained with 50 mg of CuSO4.5H2O in 1 ml of H2O and 0.1 ml of an aqueous solution of 20 mg of ascorbic acid are then added. The mixture is stirred vortically for a few minutes. The rapidly formed gel (see FIG. 31) incorporates the doxorubicin hydrochloride inside.
as §2, with “doxorubicin” for “benzydamine”, “λ=486” for “λ=308”
as §3

[6] = release of doxorubicin hydrochloride from hydrogel of hyaluronic acid with 1,6-heptadiyne; details: hydrogel of HA (product 1) with 1,6-heptadiyne, catalytic CuSO4.5H2O and ascorbic acid, Example 13; release in 100 ml distilled water
Description: as §1, with “23.2” for “13.8”, “doxorubicin” for “benzydamine”, “ml” for “mL”, “gel (see FIG. 28)” for “gel”
as §2, with “doxorubicin” for “benzydamine”, “λ=486” for “λ=308”

[7] = release of doxorubicin hydrochloride from hydrogel of crosslinked hyaluronic acid obtained with catalytic CuCl; details: hydrogel of HA (product 1 + product 2) crosslinked with catalytic CuCl, Example 11; release in 100 ml distilled water
Description: 29 mg of doxorubicin hydrochloride are dissolved in 2 ml of water and 50 mg of product 1 and 50 mg of product 2 synthesized as described above, are then added. 830 μL of a 1% w/V solution of CuCl are subsequently added to the solution and the gel is formed after a few minutes directly incorporating the drug present in solution.
The quantity of doxorubicin hydrochloride released from the hydrogel in 100 ml of distilled water, is determined by U.V. spectrophotometric measurements at λ=486 nm by interpolation of the absorbance values on a calibration line constructed using solutions of the drug at known concentration.
as §3

| maximum quantity released, of the quantity of drug initially incorporated in the gel [1] | period over which the maximum quantity of drug is released [1] | maximum quantity released, of the quantity of drug initially incorporated in the gel [2] | period over which the maximum quantity of drug is released [2] | maximum quantity released, of the quantity of drug initially incorporated in the gel [3] | period over which the maximum quantity of drug is released [3] | maximum quantity released, of the quantity of drug initially incorporated in the gel [4] | period over which the maximum quantity of drug is released [4] | maximum quantity released, of the quantity of drug initially incorporated in the gel [5] | period over which the maximum quantity of drug is released [5] | maximum quantity released, of the quantity of drug initially incorporated in the gel [6] | period over which the maximum quantity of drug is released [6] | maximum quantity released, of the quantity of drug initially incorporated in the gel [7] | period over which the maximum quantity of drug is released [7] | Structure (SMILES) |
| --- | --- | --- | --- | --- | --- | --- | --- | --- | --- | --- | --- | --- | --- | --- |
| 80% | about 6 h | 70% | about 5 h | 88% | about 3.5 h | – | – | – | – | – | – | – | – | CN(C)CCCOc1nn(Cc2ccccc2)c2ccccc12 [benzydamine hydrochloride] |
| – | – | – | – | – | – | 50% | about 50 h | 14% | about 100 h | 23% | about 250 h | 25% | about 160 h | COc1cccc2c1C(=O)c1c(O)c3c(c(O)c1C2=O)C[C@@](O)(C(=O)CO)C[C@@H]3O[C@H]1C[C@H](N)[C@H](O)[C@H](C)O1 [doxorubicin hydrochloride] |
